Results reported in PubChem BioAssay (NCI).
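Exposure lasted 48 hours, with cells grown in 96-well plates and compounds tested at five concentrations. The concentration for full growth arrest is given as TGI.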

Assays:
Assay in all cases: inhibition of tumour cell growth, NCI panel, 48 h
MCF7 breast = system: MCF7 breast
SK-MEL-28 melanoma = system: SK-MEL-28 melanoma
OVCAR-8 ovarian = system: OVCAR-8 ovarian
HT29 colon = system: HT29 colon
SF-268 CNS = system: SF-268 CNS
IGROV1 ovarian = system: IGROV1 ovarian
SF-295 CNS = system: SF-295 CNS
PC-3 prostate = system: PC-3 prostate
OVCAR-3 ovarian = system: OVCAR-3 ovarian
HOP-92 NSCLC = system: HOP-92 NSCLC
KM12 colon = system: KM12 colon
MDA-MB-231 breast = system: MDA-MB-231 breast
A549 NSCLC = system: A549 NSCLC
DU-145 prostate = system: DU-145 prostate
SF-539 CNS = system: SF-539 CNS
SK-OV-3 ovarian = system: SK-OV-3 ovarian
NCI-H460 lung = system: NCI-H460 lung
HL-60(TB) leukemia = system: HL-60(TB) leukemia
SN12C renal = system: SN12C renal
K-562 leukemia = system: K-562 leukemia

## CC[C@@H]1C[C@@H](O)[C@@H]2[C@H](O)[C@H](O)CN2C1
MCF7 breast
  TGI: > 100 µM
SK-MEL-28 melanoma
  TGI: > 100 µM
OVCAR-8 ovarian
  TGI: > 100 µM
HT29 colon
  TGI: > 100 µM
SF-268 CNS
  TGI: > 100 µM
IGROV1 ovarian
  TGI: > 100 µM
SF-295 CNS
  TGI: > 100 µM
PC-3 prostate
  TGI: > 100 µM
OVCAR-3 ovarian
  TGI: > 100 µM
HOP-92 NSCLC
  TGI: > 100 µM
KM12 colon
  TGI: > 100 µM
MDA-MB-231 breast
  TGI: > 100 µM
A549 NSCLC
  TGI: > 100 µM
DU-145 prostate
  TGI: > 100 µM
SF-539 CNS
  TGI: > 100 µM
SK-OV-3 ovarian
  TGI: > 100 µM
NCI-H460 lung
  TGI: > 100 µM
HL-60(TB) leukemia
  TGI: > 100 µM
SN12C renal
  TGI: > 100 µM
K-562 leukemia
  TGI: > 100 µM

## COc1cc2c(cc1OC)C(=O)/C(=C/c1ccccc1)C2
MCF7 breast
  TGI: > 100 µM
SK-MEL-28 melanoma
  TGI: > 100 µM
OVCAR-8 ovarian
  TGI: > 100 µM
HT29 colon
  TGI: > 100 µM
SF-268 CNS
  TGI: > 100 µM
IGROV1 ovarian
  TGI: > 100 µM
SF-295 CNS
  TGI: > 100 µM
PC-3 prostate
  TGI: > 100 µM
OVCAR-3 ovarian
  TGI: > 100 µM
HOP-92 NSCLC
  TGI: > 100 µM
KM12 colon
  TGI: > 100 µM
MDA-MB-231 breast
  TGI: > 100 µM
A549 NSCLC
  TGI: > 100 µM
DU-145 prostate
  TGI: > 100 µM
SF-539 CNS
  TGI: > 100 µM
SK-OV-3 ovarian
  TGI: > 100 µM
NCI-H460 lung
  TGI: > 100 µM
HL-60(TB) leukemia
  TGI: 50 µM
SN12C renal
  TGI: > 100 µM
K-562 leukemia
  TGI: > 65.6 µM

## CC(=O)OCC1OC(OC2CC3C(C)(C)C(=O)CC[C@]3(C)C3CC[C@]45C[C@]4(CCC5[C@@H](C)CC(O)C(O)C(C)(C)O)[C@]23C)C(O)C(O)C1O (stereo not given in full)
MCF7 breast
  TGI: 16.7 µM
SK-MEL-28 melanoma
  TGI: 12.6 µM
OVCAR-8 ovarian
  TGI: 26.5 µM
HT29 colon
  TGI: 16.7 µM
SF-268 CNS
  TGI: 21.8 µM
IGROV1 ovarian
  TGI: 23.2 µM
SF-295 CNS
  TGI: 27.1 µM
PC-3 prostate
  TGI: 21.5 µM
OVCAR-3 ovarian
  TGI: 25.4 µM
HOP-92 NSCLC
  TGI: 13.7 µM
KM12 colon
  TGI: 19.1 µM
MDA-MB-231 breast
  TGI: 19.5 µM
A549 NSCLC
  TGI: 31.6 µM
DU-145 prostate
  TGI: 30.9 µM
SF-539 CNS
  TGI: 28.8 µM
SK-OV-3 ovarian
  TGI: 28.9 µM
NCI-H460 lung
  TGI: 27.1 µM
HL-60(TB) leukemia
  TGI: 5.05 µM
SN12C renal
  TGI: 26.4 µM
K-562 leukemia
  TGI: 21.7 µM

## c1ccc(-c2cc(-c3cc(-c4ccccc4)no3)on2)cc1
MCF7 breast
  TGI: > 100 µM
SK-MEL-28 melanoma
  TGI: > 100 µM
OVCAR-8 ovarian
  TGI: 30.2 µM
HT29 colon
  TGI: > 100 µM
SF-268 CNS
  TGI: > 100 µM
IGROV1 ovarian
  TGI: > 100 µM
SF-295 CNS
  TGI: > 100 µM
PC-3 prostate
  TGI: > 100 µM
OVCAR-3 ovarian
  TGI: > 100 µM
HOP-92 NSCLC
  TGI: > 100 µM
KM12 colon
  TGI: > 100 µM
MDA-MB-231 breast
  TGI: 74.8 µM
A549 NSCLC
  TGI: > 100 µM
DU-145 prostate
  TGI: > 100 µM
SF-539 CNS
  TGI: 33.4 µM
SK-OV-3 ovarian
  TGI: 89.9 µM
NCI-H460 lung
  TGI: > 100 µM
HL-60(TB) leukemia
  TGI: > 100 µM
SN12C renal
  TGI: > 100 µM
K-562 leukemia
  TGI: 49 µM

## O=C1c2ccc3ccccc3c2CCC1N1CCCCC1 (stereo not given)
MCF7 breast
  TGI: > 100 µM
SK-MEL-28 melanoma
  TGI: 33.1 µM
OVCAR-8 ovarian
  TGI: 37.3 µM
HT29 colon
  TGI: 39 µM
SF-268 CNS
  TGI: 39.7 µM
IGROV1 ovarian
  TGI: 29.5 µM
SF-295 CNS
  TGI: 37.9 µM
PC-3 prostate
  TGI: 42.3 µM
OVCAR-3 ovarian
  TGI: 28.8 µM
HOP-92 NSCLC
  TGI: 32.2 µM
KM12 colon
  TGI: 31.6 µM
MDA-MB-231 breast
  TGI: 30.6 µM
A549 NSCLC
  TGI: 36.3 µM
DU-145 prostate
  TGI: 30.3 µM
SF-539 CNS
  TGI: 28.8 µM
SK-OV-3 ovarian
  TGI: 54.4 µM
NCI-H460 lung
  TGI: 50.4 µM
HL-60(TB) leukemia
  TGI: 49.6 µM
SN12C renal
  TGI: 29 µM
K-562 leukemia
  TGI: 35 µM

## CCC(CCCCC1CC[C@H]2CC(=O)C[C@@H]12)OC (stereo not given in full)
MCF7 breast
  TGI: > 100 µM
SK-MEL-28 melanoma
  TGI: > 100 µM
OVCAR-8 ovarian
  TGI: > 100 µM
HT29 colon
  TGI: > 100 µM
SF-268 CNS
  TGI: > 100 µM
IGROV1 ovarian
  TGI: > 100 µM
SF-295 CNS
  TGI: > 100 µM
PC-3 prostate
  TGI: > 100 µM
OVCAR-3 ovarian
  TGI: > 100 µM
HOP-92 NSCLC
  TGI: > 100 µM
KM12 colon
  TGI: > 100 µM
MDA-MB-231 breast
  TGI: > 100 µM
A549 NSCLC
  TGI: > 100 µM
DU-145 prostate
  TGI: > 100 µM
SF-539 CNS
  TGI: > 100 µM
SK-OV-3 ovarian
  TGI: > 100 µM
NCI-H460 lung
  TGI: > 100 µM
HL-60(TB) leukemia
  TGI: > 100 µM
SN12C renal
  TGI: > 100 µM
K-562 leukemia
  TGI: 66.1 µM
